Data as given in patent publication US10052340B2 (XIAMEN UNIVERSITY, priority 2012, dated 2018).
Changes are numbered by the printed parent chain.

Columns and labels:
[1] = molecular target: T1, human FXR (Homo sapiens, UniProt Q96RI1); assay: Reporter gene analysis, COS-7 cells cotransfected with full-length FXR and EcRE-Luc; assay type: cell-based; conditions: 0.5 μM, COS-7, EcRE reporter, FIG. 2
T1 construct: expressed in transfected cells; host or cells: COS-7
T1 sequence (Q96RI1 1-472 isoform Q96RI1-2): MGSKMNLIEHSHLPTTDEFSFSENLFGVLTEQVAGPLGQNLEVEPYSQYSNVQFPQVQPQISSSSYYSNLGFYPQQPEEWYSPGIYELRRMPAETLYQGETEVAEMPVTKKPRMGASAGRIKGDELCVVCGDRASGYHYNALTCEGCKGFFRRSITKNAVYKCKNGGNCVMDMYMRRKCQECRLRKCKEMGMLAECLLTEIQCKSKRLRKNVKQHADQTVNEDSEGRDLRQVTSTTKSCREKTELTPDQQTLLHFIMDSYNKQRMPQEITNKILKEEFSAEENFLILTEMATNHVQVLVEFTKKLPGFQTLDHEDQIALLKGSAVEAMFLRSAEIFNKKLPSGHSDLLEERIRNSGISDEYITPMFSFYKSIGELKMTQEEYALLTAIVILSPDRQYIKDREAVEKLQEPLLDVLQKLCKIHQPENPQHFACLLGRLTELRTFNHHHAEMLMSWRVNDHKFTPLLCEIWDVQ
Method: DMEM medium containing 10% fetal bovine serum is used to perform the culture of monkey kidney epithelial cell COS-7 cells, and COS-7 cells are inoculated onto a 24-well plate on the day before transfection with an inoculation density of 5×10^4 cells/well, and transfected on the next day. The transfection is the transient transfection performed using Lipofectamine 2000 (Invitrogen). In the reporter gene analysis experiment, 200 ng of a nuclear receptor full-length expression plasmid or the expression plasmid of the mutant thereof, 200 ng of endogenous promoter reporter gene, and 30 ng of Renilla luciferase expression plasmid are used for cotransfection. 500 μl Opti-MEM is added to each well and cultured for 5 h, followed by adding a ligand medicament diluted in Opti-MEM to reach the corresponding concentration, and treating for 18 h. Various nuclear receptors and the corresponding reporter gene used are as follows: human FXR, EcRE-Luc; human PPARs (α, β, and γ), PPRE-Luc; human RORs (α, β and γ), Pcp2/RORE-Luc; human GR and PR, MMTV-Luc; human RARα and RARβ, and βRE-Luc.
A ligand can be tested for the affinity to FXR since the ligand can induce FXR to recruit coregulators after binding to FXR.

[2] = system: FXR gene deletion homozygous mice (FXR−/−); assay: Mouse trial, FXR knockout mice fed with high-fat diet; assay type: in vivo; conditions: 1.3 mg/kg i.p. daily, 14 days
Method: Wild-type C57BL/6J mice of 9-10 weeks old, and FXR gene deletion homozygous mice (FXR^−/−) and diabetes and obesity mouse model mice (KK-Ay) with the same background are used, fed with high-fat diet (Research Diets, D12492), with free access to water, in SPF grade animal room in experimental animal center, Xiamen University. […] Intraperitoneal injection is performed one time at 9 o'clock every morning, continued for 14 days, and the mice are measured for body weight and the food intake every two days. At the end of 14 days, the mice are provided with free access to water, and after being hungry for 6 h, the mouse body weights are measured, and the percentage of the final body weight relative to the initial body weight before the treatment of the injection trial indicates the change of mouse body weight. Then blood is sampled from the eye balls, and sera are obtained by separation. The components in serum are detected by the following kits respectively: sugar-oxidase method (Beijing Applygen); insulin (Crystal Chem. Inc., USA); total cholesterol and cholesterol in high and low density lipoprotein (Bioassay Systems, USA); triglyceride (Beijing Applygen and WAKO Chemicals Inc., Japan); free fatty acids (Bioassay Systems, USA); and aspartate aminotransferase and alanine aminotransferase (Biosino Bio-technology and Science Inc., Beijing, China). Mouse liver is taken, a part of which is fixed with paraformaldehyde, and embedded with paraffin, sectioned, and stained with hematoxylin and eosin, and a part of which is cryopreserved with liquid nitrogen for use in extracting RNA for measuring gene expression with fluorescence quantitative PCR.

[3] = molecular target: T2, FXR A291W (Homo sapiens, UniProt Q96RI1, A305W); assay: Reporter gene analysis with FXR point mutant A291W in COS-7 cells; assay type: cell-based; conditions: COS-7, EcRE reporter, FIG. 5
T2 construct: the expression plasmid expressing full-length FXR (wt) or with mutations at the corresponding sites; expressed in transfected cells; host or cells: COS-7
T2 sequence (Q96RI1 1-472 isoform Q96RI1-2 A291W): T1 sequence (Q96RI1 1-472 isoform Q96RI1-2) with A291W
Method: (§1) (2) The expression vector of FXR with point mutations at key binding sites is obtained. Quick-Change site-directed mutagenesis kit (Stratagene) is used for mutation, and the mutation reaction system is as follows: wild-type plasmid pCMX-FXR (50 ng) of 0.5 μl, mutation primer (100 μM) of 0.2 μl, pfu DNA polymerase (Invitrogen) (2 U) of 1 μl, 10 mM dNTPs of 1 μl, 10× PCR buffer of 5 μl, and ddH2O of 43 μl. PCR procedures are performed as follows: 94° C. for 2 min; 94° C. for 30 s, 55° C. for 1 min, 72° C. for 7 min, 15 cycles. 20 μl PCR product is digested with Dpn I […], followed by taking and transforming 2 μl digestion product into E. coli Trans 109 competent cells, ice bath for 30 min, and heat shock at 42° C. for 30 s. 250 μl of LB liquid medium without antibiotics is added, and preshaken at 225 rpm at 37° C. for 40 min, followed by taking 150 μl of products, spreading same on LB solid medium plates with ampicillin at 100 μg/ml and culturing them at 37° C. overnight. On the next day, the single colony is picked out and placed in 2 ml LB liquid medium containing ampicillin at 100 μg/ml, and cultured at 37° C. overnight. Plasmid extraction is performed on the shaken bacterial solution using Qiagen MiniPrep Plasmid Minipreparation Kit. The plasmid is identified by sequencing.

[4] = molecular target: T3, FXR F284H (Homo sapiens, UniProt Q96RI1, F298H); assay: Reporter gene analysis with FXR point mutant F284H in COS-7 cells; assay type: cell-based; conditions: COS-7, EcRE reporter, FIG. 5
T3 construct: the expression plasmid expressing full-length FXR (wt) or with mutations at the corresponding sites; expressed in transfected cells; host or cells: COS-7
Method: as §1

T3 sequence (Q96RI1 1-472 isoform Q96RI1-2 F284H): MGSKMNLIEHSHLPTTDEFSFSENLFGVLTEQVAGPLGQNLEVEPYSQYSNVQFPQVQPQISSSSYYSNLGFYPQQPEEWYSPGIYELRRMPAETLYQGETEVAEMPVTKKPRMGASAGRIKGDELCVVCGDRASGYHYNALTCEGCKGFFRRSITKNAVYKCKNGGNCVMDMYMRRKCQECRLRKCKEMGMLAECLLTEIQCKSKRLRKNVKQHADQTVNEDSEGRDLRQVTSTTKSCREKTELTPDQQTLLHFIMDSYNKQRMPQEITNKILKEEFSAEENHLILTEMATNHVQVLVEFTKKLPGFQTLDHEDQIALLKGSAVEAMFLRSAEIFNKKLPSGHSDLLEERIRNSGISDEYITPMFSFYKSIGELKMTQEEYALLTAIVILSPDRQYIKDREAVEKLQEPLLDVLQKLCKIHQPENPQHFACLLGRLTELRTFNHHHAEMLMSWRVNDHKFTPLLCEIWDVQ

## CC[C@H](C)[C@H]1O[C@]2(CC[C@@H]1C)C[C@@H]1C[C@@H](C/C=C(\C)C(O[C@H]3C[C@H](OC)C(O[C@H]4C[C@H](OC)[C@@H](O)[C@H](C)O4)[C@H](C)O3)[C@@H](C)/C=C/C=C3\CO[C@@H]4[C@H](O)C(C)=CC(C(=O)O1)[C@]34O)O2 (some centres unmarked) [ivermectin]
[1]
  transcriptional activity of FXR: can only specifically activate the transcriptional activity of FXR
[2]
  serum cholesterol level: not producing any significant change
  serum glucose level: not producing any significant change
  serum insulin level: does not produce any significant change
[2]; FIG. 8
  cholesterol in high density lipoprotein: not affected
  cholesterol in low density/very low density lipoprotein: not affected
[3]
  transcriptional activity of FXR mutant A291W: incapable of activating the transcriptional activity of FXR
[4]
  transcriptional activity of FXR mutant F284H: incapable of activating the transcriptional activity of FXR
